Assay results reported in ChEMBL document CHEMBL1145534 (2007).
In brackets after ≈: the same amount, converted by molar mass.

How the values were obtained:
Format in all cases: functional
Corynebacterium jeikeium [1] = assay: Antimicrobial activity against Corynebacterium jeikeium at 1 ug/ml by broth microdilution method
Streptococcus oralis [2] = assay: Antimicrobial activity against viridans group Streptococcus oralis at 0.25 ug/ml by broth microdilution method
Bacillus sp. [3] = assay: Antimicrobial activity against Bacillus spp. at 0.5 ug/ml by broth microdilution method; settings: Bacillus sp. (in: firmicutes)
Streptococcus equinus [4] = assay: Antimicrobial activity against viridans group Streptococcus bovis at 1 ug/ml by broth microdilution method
Streptococcus salivarius [5] = assay: Antimicrobial activity against viridans group Streptococcus salivarius at 1 ug/ml by broth microdilution method
Streptococcus sanguinis [6] = assay: Antimicrobial activity against viridans group Streptococcus sanguinis at 0.12 ug/ml by broth microdilution method
Corynebacterium striatum [7] = assay: Antimicrobial activity against Corynebacterium striatum at 0.12 ug/ml by broth microdilution method
Streptococcus mitis [8] = assay: Antimicrobial activity against viridans group Streptococcus mitis at 2 ug/ml by broth microdilution method
Streptococcus anginosus [9] = assay: Antimicrobial activity against viridans group Streptococcus anginosus by broth microdilution method
Corynebacterium sp. [10] = assay: Antimicrobial activity against Corynebacterium spp. at 0.25 ug/ml by broth microdilution method
[11] = test system: Corynebacterium amycolatum; assay: Antimicrobial activity against Corynebacterium amycolatum at 0.12 ug/ml by broth microdilution method
Streptococcus mitis [12] = assay: Antimicrobial activity against viridans group Streptococcus mitis at 0.12 ug/ml by broth microdilution method
Bacillus sp. [13] = assay: Antimicrobial activity against Bacillus spp. at 0.25 ug/ml by broth microdilution method; settings: Bacillus sp. (in: firmicutes)
Listeria monocytogenes [14] = assay: Antimicrobial activity against Listeria monocytogenes by broth microdilution method
Streptococcus sanguinis [15] = assay: Antimicrobial activity against viridans group Streptococcus sanguinis at <= 0.06 ug/ml by broth microdilution method
Enterococcus durans [16] = assay: Antimicrobial activity against Enterococcus durans at 0.5 ug/ml by broth microdilution method
Bacillus cereus [17] = assay: Antimicrobial activity against Bacillus cereus at 2 ug/ml by broth microdilution method
Listeria monocytogenes [18] = assay: Antimicrobial activity against Listeria monocytogenes at <= 0.06 ug/ml by broth microdilution method
Rothia mucilaginosa [19] = assay: Antimicrobial activity against Rothia mucilaginosa at 2 ug/ml by broth microdilution method
Enterococcus durans [20] = assay: Antimicrobial activity against Enterococcus durans at 2 ug/ml by broth microdilution method
Streptococcus mutans = assay: Antimicrobial activity against viridans group Streptococcus mutans at 0.5 ug/ml by broth microdilution method
Streptococcus anginosus [21] = assay: Antimicrobial activity against viridans group Streptococcus anginosus at 0.5 ug/ml by broth microdilution method
Bacillus cereus [22] = assay: Antimicrobial activity against Bacillus cereus at <= 0.06 ug/ml by broth microdilution method
Enterococcus hirae [23] = assay: Antimicrobial activity against Enterococcus hirae at <= 0.06 ug/ml by broth microdilution method
Enterococcus raffinosus = assay: Antimicrobial activity against Enterococcus raffinosus at 0.5 ug/ml by broth microdilution method
[24] = test system: Corynebacterium amycolatum; assay: Antimicrobial activity against Corynebacterium amycolatum at <= 0.06 ug/ml by broth microdilution method
Corynebacterium sp. [25] = assay: Antimicrobial activity against Corynebacterium spp. by broth microdilution method
Streptococcus equinus [26] = assay: Antimicrobial activity against viridans group Streptococcus bovis at 2 ug/ml by broth microdilution method
Aerococcus [27] = assay: Antimicrobial activity against Aerococcus spp. at 0.12 ug/ml by broth microdilution method
Rothia mucilaginosa [28] = assay: Antimicrobial activity against Rothia mucilaginosa at 0.12 ug/ml by broth microdilution method
Aerococcus [29] = assay: Antimicrobial activity against Aerococcus spp. at <= 0.06 ug/ml by broth microdilution method
Streptococcus oralis [30] = assay: Antimicrobial activity against viridans group Streptococcus oralis at by broth microdilution method
Listeria monocytogenes [31] = assay: Antimicrobial activity against Listeria monocytogenes at 2 ug/ml by broth microdilution method
Micrococcus luteus = assay: Antimicrobial activity against Micrococcus luteus at <= 0.06 ug/ml by broth microdilution method
[32] = test system: Streptococcus intermedius; assay: Antimicrobial activity against viridans group Streptococcus intermedius at 2 ug/ml by broth microdilution method
Enterococcus gallinarum [33] = assay: Antimicrobial activity against Enterococcus gallinarum at <= 0.06 ug/ml by broth microdilution method
Enterococcus avium = assay: Antimicrobial activity against Enterococcus avium by broth microdilution method
Corynebacterium sp. [34] = assay: Antimicrobial activity against Corynebacterium spp. at <= 0.06 ug/ml by broth microdilution method
Enterococcus gallinarum [35] = assay: Antimicrobial activity against Enterococcus gallinarum by broth microdilution method
Streptococcus salivarius [36] = assay: Antimicrobial activity against viridans group Streptococcus salivarius at 0.25 ug/ml by broth microdilution method
Corynebacterium jeikeium [37] = assay: Antimicrobial activity against Corynebacterium jeikeium at <= 0.06 ug/ml by broth microdilution method
Streptococcus mitis [38] = assay: Antimicrobial activity against viridans group Streptococcus mitis at 0.25 ug/ml by broth microdilution method
Enterococcus gallinarum [39] = assay: Antimicrobial activity against Enterococcus gallinarum at 0.5 ug/ml by broth microdilution method
Corynebacterium striatum [40] = assay: Antimicrobial activity against Corynebacterium striatum at 0.5 ug/ml by broth microdilution method
[41] = test system: Enterococcus casseliflavus; assay: Antimicrobial activity against Enterococcus casseliflavus at 1 ug/ml by broth microdilution method
[42] = test system: Streptococcus constellatus; assay: Antimicrobial activity against viridans group Streptococcus constellatus at 2 ug/ml by broth microdilution method
Streptococcus salivarius [43] = assay: Antimicrobial activity against viridans group Streptococcus salivarius at 2 ug/ml by broth microdilution method
Streptococcus mitis [44] = assay: Antimicrobial activity against viridans group Streptococcus mitis at 1 ug/ml by broth microdilution method
[45] = test system: Streptococcus parasanguinis; assay: Antimicrobial activity against viridans group Streptococcus parasanguis at <= 0.06 ug/ml by broth microdilution method
Corynebacterium sp. [46] = assay: Antimicrobial activity against Corynebacterium spp. at 2 ug/ml by broth microdilution method
Enterococcus gallinarum [47] = assay: Antimicrobial activity against Enterococcus gallinarum at 0.12 ug/ml by broth microdilution method
Enterococcus hirae [48] = assay: Antimicrobial activity against Enterococcus hirae at 1 ug/ml by broth microdilution method
Listeria monocytogenes [49] = assay: Antimicrobial activity against Listeria monocytogenes at 0.12 ug/ml by broth microdilution method
Streptococcus salivarius [50] = assay: Antimicrobial activity against viridans group Streptococcus salivarius by broth microdilution method
Streptococcus = assay: Antimicrobial activity against beta hemolytic Streptococci group G at 0.25 ug/ml by broth microdilution method
Streptococcus salivarius [51] = assay: Antimicrobial activity against viridans group Streptococcus salivarius at 0.12 ug/ml by broth microdilution method

CC(=O)NC[C@H]1CN(c2ccc(N3CCOCC3)c(F)c2)C(=O)O1 [LINEZOLID]
inhibition at 1 µg/mL (Corynebacterium jeikeium [1]): 100%
inhibition at 0.25 µg/mL (Streptococcus oralis [2]): 3.6%
inhibition at 0.5 µg/mL (Bacillus sp. [3]): 31.7%
inhibition at 1 µg/mL (Streptococcus equinus [4]): 87.2%
inhibition at 1 µg/mL (Streptococcus salivarius [5]): 98.9%
inhibition at 0.12 µg/mL (Streptococcus sanguinis [6]): 0.7%
inhibition at 0.12 µg/mL (Corynebacterium striatum [7]): 12%
inhibition at 2 µg/mL (Streptococcus mitis [8]): 100%
MIC50 (Streptococcus anginosus [9]): 1 µg/mL (≈ 2.96 µM)
MIC90 (Streptococcus anginosus [9]): 1 µg/mL (≈ 2.96 µM)
inhibition at 0.25 µg/mL (Corynebacterium sp. [10]): 68.2%
inhibition at 0.12 µg/mL [11]: 27.3%
inhibition at 0.12 µg/mL (Streptococcus mitis [12]): 1.2%
inhibition at 0.25 µg/mL (Bacillus sp. [13]): 4.9%
MIC50 (Listeria monocytogenes [14]): 2 µg/mL (≈ 5.93 µM)
MIC90 (Listeria monocytogenes [14]): 2 µg/mL (≈ 5.93 µM)
Inhibition (Streptococcus sanguinis [15]): 0%
inhibition at 0.5 µg/mL (Enterococcus durans [16]): 8.2%
inhibition at 2 µg/mL (Bacillus cereus [17]): 100%
Inhibition (Listeria monocytogenes [18]): 0%
inhibition at 2 µg/mL (Rothia mucilaginosa [19]): 100%
inhibition at 2 µg/mL (Enterococcus durans [20]): 100%
inhibition at 0.5 µg/mL (Streptococcus mutans): 36.8%
inhibition at 0.5 µg/mL (Streptococcus anginosus [21]): 33.7%
Inhibition (Bacillus cereus [22]): 1.7%
Inhibition (Enterococcus hirae [23]): 0%
inhibition at 0.5 µg/mL (Enterococcus raffinosus): 0%
Inhibition [24]: 0%
MIC50 (Corynebacterium sp. [25]): 0.25 µg/mL (≈ 0.741 µM)
MIC90 (Corynebacterium sp. [25]): 0.5 µg/mL (≈ 1.48 µM)
inhibition at 2 µg/mL (Streptococcus equinus [26]): 100%
inhibition at 0.12 µg/mL (Aerococcus [27]): 0%
inhibition at 0.12 µg/mL (Rothia mucilaginosa [28]): 5.6%
Inhibition (Aerococcus [29]): 0%
MIC50 (Streptococcus oralis [30]): 1 µg/mL (≈ 2.96 µM)
MIC90 (Streptococcus oralis [30]): 1 µg/mL (≈ 2.96 µM)
inhibition at 2 µg/mL (Listeria monocytogenes [31]): 100%
Inhibition (Micrococcus luteus): 0%
inhibition at 2 µg/mL [32]: 100%
Inhibition (Enterococcus gallinarum [33]): 0%
MIC50 (Enterococcus avium): 1 µg/mL (≈ 2.96 µM)
MIC90 (Enterococcus avium): 2 µg/mL (≈ 5.93 µM)
Inhibition (Corynebacterium sp. [34]): 2.1%
MIC50 (Enterococcus gallinarum [35]): 2 µg/mL (≈ 5.93 µM)
MIC90 (Enterococcus gallinarum [35]): 2 µg/mL (≈ 5.93 µM)
inhibition at 0.25 µg/mL (Streptococcus salivarius [36]): 3.3%
Inhibition (Corynebacterium jeikeium [37]): 1.7%
inhibition at 0.25 µg/mL (Streptococcus mitis [38]): 4.4%
inhibition at 0.5 µg/mL (Enterococcus gallinarum [39]): 1.7%
inhibition at 0.5 µg/mL (Corynebacterium striatum [40]): 100%
inhibition at 1 µg/mL [41]: 23.1%
inhibition at 2 µg/mL [42]: 100%
inhibition at 2 µg/mL (Streptococcus salivarius [43]): 100%
inhibition at 1 µg/mL (Streptococcus mitis [44]): 99.1%
Inhibition [45]: 0%
inhibition at 2 µg/mL (Corynebacterium sp. [46]): 100%
inhibition at 0.12 µg/mL (Enterococcus gallinarum [47]): 0%
inhibition at 1 µg/mL (Enterococcus hirae [48]): 37.5%
inhibition at 0.12 µg/mL (Listeria monocytogenes [49]): 0%
MIC50 (Streptococcus salivarius [50]): 1 µg/mL (≈ 2.96 µM)
MIC90 (Streptococcus salivarius [50]): 1 µg/mL (≈ 2.96 µM)
inhibition at 0.25 µg/mL (Streptococcus): 0.8%
inhibition at 0.12 µg/mL (Streptococcus salivarius [51]): 1.1%
